The text below walks through data of patent publication US20060217390A1, “Cycloalkl, aryl and heteroaryl amino isothiazoles for the treatment of Hepatitis C virus” (priority 2005, published 2006).

Assay [1] concerns parental replicon cells (I389/NS3-3). The experiment in a line: Sensitivity of parental (wild-type) replicon cells, HCV replicon RNA by quantitative RT-PCR. The format is cell-based. Conditions: Wild-type replicon cell line; for EC50: Hepatitis C virus, HCV replicon RNA by RT-PCR, 72 hours of treatment; for Fold over wild-type: fold of EC50. How it is done:
(§1) A replicon-containing cell line (I389/NS3-3) was used to select the resistant replicons against Compound 1 (Lohmann et al., Science 285:110-113, 1999). Replicon cells were plated in a 100 mm dish, under a subconfluent condition (approximately at 40% confluency). After 24 hours, Compound 1 was added to the cells with the final concentration of 2 μM in the medium containing 1 mg of G418 per ml. After 3 weeks, colonies of cells resistant to Compound 1 were isolated and expanded. Three independent cell lines (w1, w3 and w4) with growth rate similar to that of the parental replicon cells were selected to test for their sensitivity to Compound 1.
(§2) To confirm that viral RNAs in the selected cell lines were resistant to Compound 1, the cells were treated with the compound with concentrations from 0.05 to 5 μM. After 72-hours of treatment, cells were lysed and the cell lysates were diluted with RNase-free water, from which 5 μl was used to quantify the HCV replicon RNA by using real-time quantitative reverse transcriptase (RT) PCR assay (Cheney et al., Virology 297:298-306, 2002). Same quantitative RT-PCR protocol was used to determine the level of the cellular glyceraldhehyde-3-phosphate dehydrogenase (GAPDH) RNA in the same cell lysate, which served as an internal control to normalize the difference of total RNAs. To calculate the EC50 values of Compound 1 against the resistant cell lines, the relative cycle threshold (CT) for the HCV and GAPDH was determined. […] Identification of the Molecular Target
A general note: Replicon systems follow genome replication, usually without infectious particles.

The subject of assay [2] is resistant replicon cell lines (w1, w3 and w4). As to the kind of experiment: Sensitivity of resistant replicon cell lines, HCV replicon RNA by quantitative RT-PCR. In kind it is cell-based. Conditions: for EC50: Hepatitis C virus, 72 h, HCV replicon RNA by RT-PCR, 72 hours of treatment; for Fold over wild-type: fold of EC50. How it is done: as §1, §2
Another assay has as its target T1, NS5B polymerase (Hepatitis C virus genotype 1b, UniProt Q9WMX2, C2735Y).
T1 construct: a single nucleotide change in the region of viral NS5B polymerase; expressed in transfected cells; host or cells: HCV subgenomic replicon cells (parental and Compound 1-resistant lines w1, w3, w4)
The experiment in a line: Identification of the molecular target (sequencing of resistant replicons). The note with it: eight cDNA clones of three resistant cell lines (w1, w3 and w4). Further details: species or system HCV. How it is done:
To determine the targeted viral gene of Compound 1, total RNA was isolated from the resistant cell lines and from the parental replicon cells. The cDNA fragment encoding the HCV nonstructural proteins (NS3-NS5B) was amplified from the total cellular RNA by using a Thermoscript RT-PCR kit (Invitrogen). The cDNA fragments were cloned into pCR4-TOPO vector by using a TOPO TA cloning kit (Invitrogen). The entire DNA sequence of the HCV nonstructural coding region was determined for multiple independent cDNA clones.
Eight different cDNA clones were generated from three independently cell lines selected by Compound 1 (cell lines w1, w3 and w4) and three cDNA clones from the parental cell line.

T1 sequence (Q9WMX2 2420-3010 C2735Y): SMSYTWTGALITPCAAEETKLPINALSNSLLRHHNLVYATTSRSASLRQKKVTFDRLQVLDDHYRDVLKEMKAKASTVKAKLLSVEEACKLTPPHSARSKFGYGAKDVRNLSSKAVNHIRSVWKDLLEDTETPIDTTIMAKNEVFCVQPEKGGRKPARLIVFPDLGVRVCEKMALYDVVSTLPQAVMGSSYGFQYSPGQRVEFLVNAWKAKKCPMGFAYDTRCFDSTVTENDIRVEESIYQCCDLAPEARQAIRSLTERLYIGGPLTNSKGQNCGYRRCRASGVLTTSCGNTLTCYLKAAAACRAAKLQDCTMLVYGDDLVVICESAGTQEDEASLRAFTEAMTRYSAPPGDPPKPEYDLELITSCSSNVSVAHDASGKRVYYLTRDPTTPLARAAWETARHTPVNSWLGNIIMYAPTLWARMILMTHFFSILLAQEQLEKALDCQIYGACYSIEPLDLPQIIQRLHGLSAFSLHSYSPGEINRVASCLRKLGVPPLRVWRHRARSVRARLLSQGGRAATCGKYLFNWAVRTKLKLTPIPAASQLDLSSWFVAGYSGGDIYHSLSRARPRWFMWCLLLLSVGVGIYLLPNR

As for `C[C@@]1(O)[C@H](O)[C@@H](CO)O[C@H]1n1cnc2c(N)ncnc21` [2′-C-methyl-adenosine], the half-maximal effective concentration (EC50) (usually the concentration needed to bring the measured effect to its halfway point) in assay [1] amounted to 360 nM; in assay [2] (resistant cell line W1), 160 nM; in assay [2] (resistant cell line W3), 260 nM; in assay [2] (resistant cell line W4) it was 310 nM. The Fold over wild-type in assay [1] was found to be 1; in assay [2] (resistant cell line W1), 0.4; in assay [2] (resistant cell line W3), 0.7; in assay [2] (resistant cell line W4) it was 0.9. Besides, the “sensitivity of resistant cell lines to inhibition” value in assay [2] (cell lines w1, w3, w4 selected with Compound 1) is on record as “still sensitive to inhibition”.
Turning to `N#Cc1c(Nc2cc(Cl)cc(Cl)c2)s[nH]c1=O` [Compound 1], the EC50 in assay [1] amounted to 70 nM; in assay [2] (resistant cell line W1) it was 3680 nM; in assay [2] (resistant cell line W3), 2030 nM; in assay [2] (resistant cell line W4) it was 4620 nM. The Fold over wild-type in assay [1] was found to be 1; in assay [2] (resistant cell line W1) it was 52; in assay [2] (resistant cell line W3), 29; in assay [2] (resistant cell line W4), 66. For the same compound, the “mutation present in cDNA clones of cell lines selected by the compound” value at NS5B polymerase is recorded as “cysteine at position 316 of NS5B polymerase to a tyrosine residue”.
